In PMC5896380, “Selective imaging of cathepsin L in breast cancer by fluorescent activity-based probes” (Chemical Science, 2018):

Key:
[1] = system: cathepsins L and B in HEK293T cells; assay: Cathepsin labeling by Cy5 probes in HEK293T cells, immunoblotting; assay type: cell-based, human; details: 1 μM probe, 0–18 hours
Description: Figure S3 Cathepsins labeling by two Cy5-tagged probes in HEK293T cells. Panel A. Cells (100,000/well/mL) were incubated with MP-cL3 (1µM) probe for 0-18 hours. Next, cells were harvested and subjected for Western blotting. MP-cL3 probe is very selective toward cathepsin L even after 18 hours of incubation (only residual cathepsin B activity is detected).
MDA-MB-231, thus mostly heavy chain of cathepsin L is labeled. Panel B and Panel C. Cells (100,000/well/mL) were incubated with pan-specific MP-pc1 (1µ M) probe for 0-18 hours. Next, cells were harvested and subjected […]
(1 picture or pasted object on this page, not shown here)

[2] = system: cathepsin L in MDA-MB-231 cells; assay: Weighted colocalization of probe with cathepsin L antibody, confocal microscopy; assay type: cell-based, human; details: 1 μM probe
Description: Glass coverslips 15 mm in diameter were placed in 12-well plates and coated with poly-D-lysine (500 μL, 1 mg mL^–1 in water, Specialty Media) for 30 minutes. The poly-D-lysine was aspirated and the coverslips were washed twice with sterile water and air-dried. Next, low passage MDA-MB-231 cells in DMEM (100 000 cells per mL) were added to wells (1 mL per well) and allowed to attach for 2 hours. Cells were then treated with Cy5-labeled probes (1 μM) for 8 or 24 hours. The control cells were preincubated with E64d for 2 hours. After various incubation times, the medium was removed and the cells were gently washed twice with DPBS (1 mL each). The cells were then fixed with ice-cold methanol (500 μL per well) for 15 minutes at –20 °C. The methanol was gently removed and the fixed cells were washed twice with DPBS, blocked and permeabilized with 10% BSA in DPBS (with 0.5% Triton-X, v/v) for 1 hour at room temperature, and washed twice with 3% BSA in DPBS (with 0.5% Triton-X, v/v). Cathepsins L and B were detected by primary goat anti-hCathepsin L (R&D, AF952, 0.2 mg mL^–1, 1 : 200) and goat anti-hCathepsin B (R&D, AF953, 0.2 mg mL^–1, 1 : 80), respectively, in 3% BSA in DPBS (with 0.5% Triton-X, v/v) for 2 hours at room temperature. The antibodies were removed and the cells were washed twice with 3% BSA in DPBS (with 0.5% Triton-X, v/v) and labeled with a secondary antibody (Alexa Fluor™ 488 donkey anti-goat IgG (H + L), A11055, Invitrogen, 1 : 500) in DPBS (with 0.5% Triton-X, v/v) for 1 hour at room temperature. Next, the cells were washed twice with DPBS, and coverslips were mounted using Vectashield mounting medium fluorescence containing DAPI (Vector Lab. H-1000). In brief, a drop of mounting medium was placed on the Superfrost Plus microscope slide (Fisher Scientific, no. 12-550-15) and the coverslip was placed on the drop upside-down. […] DAPI was detected using the UV channel, the Cy5 probe was detected with a Cy5 filter (excitation at 647 nm (Axio Observer) or 633 nm (Zeiss LSM), emission at 667 nm; red channel) and cathepsins/secondary antibodies were read using FITC filters (excitation at 495 nm (Axio Observer) or 488 nm (Zeiss LSM), emission at 517 nm; […]; green channel). All images were acquired in .tiff format in MetaMorph software or in .lsm format in ZEN software and analyzed using ImageJ and ZEN software. […]
To quantify ABP/cathepsin colocalization we calculated weighted colocalization coefficients between the MP-cL3 ABP (red) and cathepsin L (green) and between the MP-cL3 ABP (red) and cathepsin B (green) using ZEN 2011 software. […]

cathepsin B = target: T1, cathepsin B (Homo sapiens, UniProt P07858); assay: kobs/I of activity-based probes, cathepsin B; assay type: biochemical; details: Fig. 6A; pseudo-first order, probe at least 5-fold excess over cathepsin, 100 μM ACC substrate; pH 5.5, 37 °C; triplicate, SD below 20%
T1 construct: made in house
Description: (§1) All kinetic experiments were performed using fMax (Molecular Devices) and CLARIOStar (BMG LABTECH) spectrofluorimeters operating in kinetic mode using 96-well plates. ACC-labeled substrates were screened using 355 nm and 460 nm wavelengths (excitation and emission, respectively). […] The buffer was prepared at room temperature and the enzyme kinetic studies were performed at 37 °C.
(§2) For the kinetic studies, five recombinant human cathepsins (B, L, V, K and S) were expressed and purified and active site titrated using an E64 inhibitor. The kobs/I parameter was measured under pseudo-first order kinetic conditions, as described.[40] The cathepsin of interest was mixed with various concentrations of probe (at least 5-fold excess over cathepsin) and 100 μM ACC-fluorescence substrate. The experiments were repeated at least three times, and the results are presented as an average. The SDs were below 20%.

[3] = system: cathepsin B in MDA-MB-231 cells; assay: Weighted colocalization of probe with cathepsin B antibody, confocal microscopy; assay type: cell-based, human; details: CatB ab (8h), 1 μM probe
Description: Glass coverslips 15 mm in diameter were placed in 12-well plates and coated with poly-D-lysine (500 μL, 1 mg mL^–1 in water, Specialty Media) for 30 minutes. The poly-D-lysine was aspirated and the coverslips were washed twice with sterile water and air-dried. Next, low passage MDA-MB-231 cells in DMEM (100 000 cells per mL) were added to wells (1 mL per well) and allowed to attach for 2 hours. Cells were then treated with Cy5-labeled probes (1 μM) for 8 or 24 hours. The control cells were preincubated with E64d for 2 hours. After various incubation times, the medium was removed and the cells were gently washed twice with DPBS (1 mL each). The cells were then fixed with ice-cold methanol (500 μL per well) for 15 minutes at –20 °C. […] Cathepsins L and B were detected by primary goat anti-hCathepsin L (R&D, AF952, 0.2 mg mL^–1, 1 : 200) and goat anti-hCathepsin B (R&D, AF953, 0.2 mg mL^–1, 1 : 80), respectively, in 3% BSA in DPBS (with 0.5% Triton-X, v/v) for 2 hours at room temperature. […] Next, the cells were washed twice with DPBS, and coverslips were mounted using Vectashield mounting medium fluorescence containing DAPI (Vector Lab. H-1000). […] All images were acquired in .tiff format in MetaMorph software or in .lsm format in ZEN software and analyzed using ImageJ and ZEN software. […]

cathepsin S = target: T2, cathepsin S (Homo sapiens, UniProt P25774); assay: kobs/I of activity-based probes, cathepsin S; assay type: biochemical; details: Fig. 6A; pseudo-first order, probe at least 5-fold excess over cathepsin, 100 μM ACC substrate; pH 5.5, 37 °C; triplicate, SD below 20%
T2 construct: made in house
T2 sequence (P25774 115-331): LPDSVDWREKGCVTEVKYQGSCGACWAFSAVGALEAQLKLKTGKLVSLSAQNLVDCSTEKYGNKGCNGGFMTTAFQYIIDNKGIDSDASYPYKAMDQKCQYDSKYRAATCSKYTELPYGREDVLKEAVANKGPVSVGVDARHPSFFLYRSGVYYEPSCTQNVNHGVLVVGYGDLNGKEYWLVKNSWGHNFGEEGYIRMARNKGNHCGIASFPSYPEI
Description: as §1, §2

[4] = system: cathepsins L, V, B, S and K; assay: Labeling of recombinant cathepsins by Cy5 probes, SDS-PAGE; assay type: biochemical, human; details: cathepsins 10 nM or 100 nM, probe/enzyme ratio 0.2, 1, 5 and 25, 30 min, Cy5 scan
Description: In experiment A, the probe concentrations were 2 nM, 10 nM, 50 nM and 250 nM, while in experiment B the probe concentrations were 20 nM, 100 nM, 500 nM and 2.5 μM. The reaction volume for all the samples was 200 μL. After 30 min, 100 μL of 3× SDS/DTT was added to the reaction mixtures, the samples were boiled for 5 min, and then 20 μL of the sample was run on 4–12% Bis-Tris Plus 15-well gels for 30 min at 200 V with 2 μL of PageRuler™ Prestained Protein Ladder. The gels were then directly scanned at 700 nm (red channel for Cy5 detection; excitation 685 nm) using an Odyssey fluorescence imaging system (LI-COR) and the images were analyzed using Image Studio software.

cathepsin L = target: T3, cathepsin L (Homo sapiens, UniProt P07711); assay: kobs/I of activity-based probes, cathepsin L; assay type: biochemical; details: Fig. 6A; pseudo-first order, probe at least 5-fold excess over cathepsin, 100 μM ACC substrate; pH 5.5, 37 °C; triplicate, SD below 20%
T3 construct: made in house
T3 sequence (P07711 114-333): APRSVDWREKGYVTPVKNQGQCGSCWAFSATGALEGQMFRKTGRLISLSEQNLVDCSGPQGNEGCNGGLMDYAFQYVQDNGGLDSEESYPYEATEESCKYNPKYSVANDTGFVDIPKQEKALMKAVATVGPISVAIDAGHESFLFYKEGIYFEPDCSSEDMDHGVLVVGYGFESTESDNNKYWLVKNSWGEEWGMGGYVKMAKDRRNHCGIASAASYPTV
Description: as §1, §2

- kobs/I Cath-B (cathepsin B): 780 M⁻¹ s⁻¹
- kobs/I Cath-S (cathepsin S): 225 M⁻¹ s⁻¹
- kobs/I Cath-L (cathepsin L): 322,000 M^-1s^-1
Substance: Cy5-6-ahx-His-DThr-Phe(F5)-Cys(Bzl)-AOMK [MP-cL3]
- cathepsins labeled in HEK293T cells [1]: bound only cathepsin L
- weighted colocalization coefficient ([2]; CatL ab (8h), single cells analysis, 98 single cells): 0.928
- weighted colocalization coefficient ([2]; CatL ab (8h), whole pictures analysis, 8 images): 0.937
- weighted colocalization coefficient ([2]; CatL ab (24h), single cells analysis, 59 single cells): 0.695
- weighted colocalization coefficient ([2]; CatL ab (24h), whole pictures analysis, 8 images): 0.725
- weighted colocalization coefficient ([3]; single cells analysis, 68 single cells): 0.635
- weighted colocalization coefficient ([3]; whole pictures analysis, 7 images): 0.646
- labeling of recombinant cathepsins L, V, B, S and K [4]: very high degree of selectivity
